≈ marks a conversion by molar mass, not a printed value. Where a SMILES comes first, the peptide text is derived from it. [ ]: non-standard residue; d: D form. The star is where a group is joined. Undecanoyl = CCCCCCCCCCC(=O)*; Nlys = NCCCCNCC(=O)O
How the values were obtained:
[1] = test system: E. faecalis ATCC 29212; assay type: cell-based, Enterococcus faecalis; conditions: ATCC 29212, 24 h
Experimental: (§1) Antimicrobial activity of the purified lipopeptoids was determined without replication against a panel of clinically relevant and standard reference bacterial strains according to CLSI macrobroth standards. Stock solutions at 512 µg/mL were prepared in water, with DMSO as needed, and testing was performed in glass test tubes using Muller-Hinton broth and bacteria adjusted to 5 × 10^5 CFU/mL. Bacteria were incubated with the lipopeptoid of interest for 24 hr at 37°C prior to reading.
(§2) The bacteria Staphylococcus aureus ATCC 29213, methicillin-resistant S. aureus ATCC 33592, Staphylococcus epidermidis ATCC 14990, Enterococcus faecalis ATCC 29212, E. faecium ATCC 27270, Streptococcus pneumoniae ATCC 49619, Escherichia coli ATCC 25922, Pseudomonas aeruginosa ATCC 27853, and Klebsiella pneumoniae ATCC 13883 were acquired from the American Type Culture Collection (ATCC) and used as quality controls. The clinical strains methicillin-resistant S. epidermidis (MRSE) CAN-ICU 61589, E. coli CAN-ICU 61714, E. coli CAN-ICU 63074, P. aeruginosa CAN-ICU 62308, Stenotrophomonas maltophilia CAN-ICU 62584, Acinetobacter baumannii CAN-ICU 63169 were obtained from hospitals across Canada as part of the CAN-ICU studies, while methicillin-susceptible S. epidermidis (MSSE) 81388 was obtained from the 2008 CANWARD study.
(§3) After subculturing the relevant bacteria twice from frozen stock, in vitro activities of the antimicrobials were determined by macrobroth dilution methodology in accordance with the Clinical and Laboratory Standards Institute (CLSI) guidelines (3). The MICs were determined using glass test tubes (2 mL/tube) containing doubling antimicrobial dilutions of cation adjusted Mueller-Hinton broth inoculated to achieve a final concentration of approximately 5 x 10^5 CFU/mL, incubated in ambient air for 24 hr prior to reading. Colony counts were performed periodically to confirm inocula. The ATCC organisms […] ATCC 49619, Staphylococcus aureus ATCC 29213, Enterococcus faecalis ATCC 29212, Escherichia coli ATCC 25922, and Pseudomonas aeruginosa ATCC 27853 were used as quality control and to allow easy comparison to previously tested antimicrobials. Each test in this series was performed without replication. In our experience with cationic amphiphiles the results are accurate to within a single doubling.

[2] = test system: panel of clinically relevant and laboratory reference bacteria; test: Antimicrobial activity over the whole bacterial panel; assay type: cell-based; conditions: Gram positive and Gram negative strains, no BSA
Experimental: as §1, with “reading. […]” for “reading.”
After subculturing the relevant bacteria twice from frozen stock, in vitro activities of the antimicrobials were determined by macrobroth dilution methodology in accordance with the Clinical and Laboratory Standards Institute (CLSI) guidelines (3). The MICs were determined using glass test tubes (2 mL/tube) containing doubling antimicrobial dilutions of cation adjusted Mueller-Hinton broth inoculated to achieve a final concentration of approximately 5 x 10^5 CFU/mL, incubated in ambient air for 24 hr prior to reading. […]

[3] = test system: MRSA ATCC 33592; assay type: cell-based, methicillin-resistant S. aureus; conditions: ATCC 33592, 24 h
Experimental: as §1, §2, §3

[4] = test system: K.pneumoniae ATCC 13883; assay type: cell-based, Klebsiella pneumoniae; conditions: ATCC 13883, 24 h
Experimental: as §1, §2, §3

[5] = test system: E.coli ATCC 25922; assay type: cell-based, Escherichia coli; conditions: ATCC 25922, 24 h
Experimental: as §1, §2, §3

[6] = test system: E.coli CAN-ICU 63074; assay type: cell-based, Escherichia coli; conditions: CAN-ICU 63074, 24 h
Experimental: as §1, §2, §3

[7] = test system: E.coli CAN-ICU 61714; assay type: cell-based, Escherichia coli; conditions: CAN-ICU 61714, 24 h
Experimental: as §1, §2, §3

[8] = test system: S. maltophilia CAN-ICU 62584; assay type: cell-based, Stenotrophomonas maltophilia; conditions: CAN-ICU 62584, 24 h
Experimental: as §1, §2, §3

[9] = test system: ovine erythrocytes; test: Haemolytic assay; assay type: cell-based, sheep; conditions: ovine erythrocytes in Tris buffered saline, 30 minutes, absorbance of supernatant at 540 nm
Experimental: Mammalian cell toxicity was determined by measuring lysis of ovine erythrocytes, a standard model for human cell toxicity. Cells were prewashed with Tris buffered saline and then incubated with a variety of lipopeptoid concentrations for 30 minutes. Following centrifugation, lysis was evaluated by testing the absorbance of the solution at 540 nm, with 0.5% NH4OH used as a positive control.
Toxicity to mammalian cells was determined using a sheep red blood cell (erythrocyte) haemolytic assay (4). Erythrocytes were washed and resuspended in Tris buffered saline prior to use, at a concentration of 1.46 - 4.5 x 10^9 cells/mL (on average 3.08 x 10^9 cells/mL). The cell suspension was diluted with varying concentrations of antimicrobials, from 50 μg/mL to 1 mg/mL and incubated for thirty minutes (final erythrocyte concentration 4.08 x 10^8 cells/mL). The samples were centrifuged following treatment and the absorbance of the supernatant was measured at 540 nm. A solution of 0.5% […] was used as a positive control, with normal buffered solution as the negative control. The toxicity was assessed as a function of percent haemolysis.

[10] = test system: E. faecium ATCC 27270; assay type: cell-based; conditions: ATCC 27270, 24 h
Experimental: as §1, §2, §3

[11] = test system: P.aeruginosa ATCC 27853; assay type: cell-based, Pseudomonas aeruginosa; conditions: ATCC 27853, 24 h
Experimental: as §1, §2, §3

[12] = test system: P.aeruginosa CAN-ICU 62308; assay type: cell-based, Pseudomonas aeruginosa; conditions: CAN-ICU 62308, 24 h
Experimental: as §1, §2, §3

[13] = test system: S.pneumoniae ATCC 49619; assay type: cell-based, Streptococcus pneumoniae; conditions: ATCC 49619, 24 h
Experimental: as §1, §2, §3

[14] = test system: MSSE 81388 CANWARD 2008; assay type: cell-based, methicillin-susceptible S. epidermidis; conditions: 24 h
Experimental: as §1, §2, §3

[15] = test system: S.aureus ATCC 29213; assay type: cell-based, Staphylococcus aureus; conditions: ATCC 29213, 24 h
Experimental: as §1, §2, §3

[16] = test system: MRSE CAN-ICU 61589; assay type: cell-based, methicillin-resistant S. epidermidis; conditions: CAN-ICU 61589, 24 h
Experimental: as §1, §2, §3

[17] = test system: A. baumannii CAN-ICU 63169; assay type: cell-based, Acinetobacter baumannii; conditions: CAN-ICU 63169, 24 h
Experimental: as §1, §2, §3

SMILES	MIC E. faecalis [1]	MIC E. faecalis in the presence of 4% bovine serum albumin [1]	MIC MRSA [3]	MIC MRSA in the presence of 4% bovine serum albumin [3]	MIC K.pneumoniae [4]	MIC K.pneumoniae in the presence of 4% bovine serum albumin [4]	MIC E.coli [5]	MIC E.coli in the presence of 4% bovine serum albumin [5]	MIC E.coli [6]	MIC E.coli in the presence of 4% bovine serum albumin [6]	MIC E.coli [7]	MIC E.coli in the presence of 4% bovine serum albumin [7]	MIC S. maltophilia [8]	MIC S. maltophilia in the presence of 4% bovine serum albumin [8]	Percent haemolysis at 100µg/mL of compound [9]	MIC E. faecium [10]	MIC E. faecium in the presence of 4% bovine serum albumin [10]	MIC P.aeruginosa [11]	MIC P.aeruginosa in the presence of 4% bovine serum albumin [11]	MIC P.aeruginosa [12]	other results
CCCCCCCCCCC(=O)N(CCCCN)CC(=O)NCC(=O)N(CCCCN)CC(N)=O [C11-NlysGNlys] (Undecanoyl-[Nlys]-Gly-[Nlys]-NH2)	512 µg/mL (≈ 1030 µM)	>512 µg/mL	512 µg/mL (≈ 1030 µM)	>512 µg/mL	>512 µg/mL	>512 µg/mL	>512 µg/mL	>512 µg/mL	>512 µg/mL	>512 µg/mL	>512 µg/mL	>512 µg/mL	>512 µg/mL	>512 µg/mL	1.34%	512 µg/mL (≈ 1030 µM)	>512 µg/mL	>512 µg/mL	>512 µg/mL	>512 µg/mL	Antimicrobial activity over the panel (in words) [2]: broadly inactive; MIC P.aeruginosa in the presence of 4% bovine serum albumin [12]: >512 µg/mL; MIC S.pneumoniae [13]: 512 µg/mL (≈ 1030 µM); MIC S.pneumoniae in the presence of 4% bovine serum albumin [13]: 512 µg/mL; MIC MSSE [14]: 256 µg/mL (≈ 513 µM); MIC MSSE in the presence of 4% bovine serum albumin [14]: 512 µg/mL; MIC S.aureus [15]: 512 µg/mL (≈ 1030 µM); MIC S.aureus in the presence of 4% bovine serum albumin [15]: >512 µg/mL; MIC MRSE [16]: 256 µg/mL (≈ 513 µM); MIC MRSE in the presence of 4% bovine serum albumin [16]: 512 µg/mL; MIC A. baumannii [17]: >512 µg/mL; MIC A. baumannii in the presence of 4% bovine serum albumin [17]: >512 µg/mL
CCCCCCCCCCC(=O)N(CCCCN)CC(=O)N(CCCCN)CC(=O)N(CCCCN)CC(N)=O [C11-NlysNlysNlys]	512 µg/mL (≈ 899 µM)	>512 µg/mL	512 µg/mL (≈ 899 µM)	>512 µg/mL	>512 µg/mL	>512 µg/mL	>512 µg/mL	>512 µg/mL	>512 µg/mL	>512 µg/mL	>512 µg/mL	>512 µg/mL	>512 µg/mL	>512 µg/mL	0.67%	256 µg/mL (≈ 449 µM)	512 µg/mL	>512 µg/mL	>512 µg/mL	>512 µg/mL	Antimicrobial activity over the panel (in words) [2]: broadly inactive; MIC P.aeruginosa in the presence of 4% bovine serum albumin [12]: >512 µg/mL; MIC S.pneumoniae [13]: >512 µg/mL; MIC S.pneumoniae in the presence of 4% bovine serum albumin [13]: >512 µg/mL; MIC MSSE [14]: 512 µg/mL (≈ 899 µM); MIC MSSE in the presence of 4% bovine serum albumin [14]: 512 µg/mL; MIC S.aureus [15]: 512 µg/mL (≈ 899 µM); MIC S.aureus in the presence of 4% bovine serum albumin [15]: >512 µg/mL; MIC MRSE [16]: 512 µg/mL (≈ 899 µM); MIC MRSE in the presence of 4% bovine serum albumin [16]: 512 µg/mL; MIC A. baumannii [17]: >512 µg/mL; MIC A. baumannii in the presence of 4% bovine serum albumin [17]: >512 µg/mL
CCCCCCCCCCCCCCCC(=O)N(CCCCN)CC(=O)N(CCCCN)CC(=O)N(CCCCN)CC(N)=O [C16-NlysNlysNlys]	32 µg/mL (≈ 50 µM)	>512 µg/mL	32 µg/mL (≈ 50 µM)	>512 µg/mL	128 µg/mL (≈ 200 µM)	>512 µg/mL	32 µg/mL (≈ 50 µM)	>512 µg/mL	64 µg/mL (≈ 100 µM)	>512 µg/mL	64 µg/mL (≈ 100 µM)	>512 µg/mL	256 µg/mL (≈ 400 µM)	>512 µg/mL	67.69%	32 µg/mL (≈ 50 µM)	>512 µg/mL	128 µg/mL (≈ 200 µM)	>512 µg/mL	128 µg/mL (≈ 200 µM)	MIC P.aeruginosa in the presence of 4% bovine serum albumin [12]: >512 µg/mL; MIC S.pneumoniae [13]: 128 µg/mL (≈ 200 µM); MIC S.pneumoniae in the presence of 4% bovine serum albumin [13]: 512 µg/mL; MIC MSSE [14]: 8 µg/mL (≈ 12.5 µM); MIC MSSE in the presence of 4% bovine serum albumin [14]: 512 µg/mL; MIC S.aureus [15]: 16 µg/mL (≈ 25 µM); MIC S.aureus in the presence of 4% bovine serum albumin [15]: 512 µg/mL; MIC MRSE [16]: 8 µg/mL (≈ 12.5 µM); MIC MRSE in the presence of 4% bovine serum albumin [16]: 512 µg/mL; MIC A. baumannii [17]: 256 µg/mL (≈ 400 µM); MIC A. baumannii in the presence of 4% bovine serum albumin [17]: >512 µg/mL
CCCCCCCCCCC(=O)N(CCCCNC(=N)N)CC(=O)NCC(=O)N(CCCCNC(=N)N)CC(N)=O [C11-NhargGNharg]	256 µg/mL (≈ 439 µM)	>512 µg/mL	128 µg/mL (≈ 220 µM)	512 µg/mL	512 µg/mL (≈ 879 µM)	512 µg/mL	512 µg/mL (≈ 879 µM)	512 µg/mL	512 µg/mL (≈ 879 µM)	>512 µg/mL	512 µg/mL (≈ 879 µM)	>512 µg/mL	>512 µg/mL	>512 µg/mL	1.49%	256 µg/mL (≈ 439 µM)	512 µg/mL	>512 µg/mL	>512 µg/mL	512 µg/mL (≈ 879 µM)	MIC P.aeruginosa in the presence of 4% bovine serum albumin [12]: 512 µg/mL; MIC S.pneumoniae [13]: 512 µg/mL (≈ 879 µM); MIC S.pneumoniae in the presence of 4% bovine serum albumin [13]: >512 µg/mL; MIC MSSE [14]: 128 µg/mL (≈ 220 µM); MIC MSSE in the presence of 4% bovine serum albumin [14]: 256 µg/mL; MIC S.aureus [15]: 128 µg/mL (≈ 220 µM); MIC S.aureus in the presence of 4% bovine serum albumin [15]: 512 µg/mL; MIC MRSE [16]: 128 µg/mL (≈ 220 µM); MIC MRSE in the presence of 4% bovine serum albumin [16]: 512 µg/mL; MIC A. baumannii [17]: 512 µg/mL (≈ 879 µM); MIC A. baumannii in the presence of 4% bovine serum albumin [17]: >512 µg/mL

Reference: PMC3402541, “Guanidylation and Tail Effects in Cationic Antimicrobial Lipopeptoids” (PLoS ONE, 2012)
